This passage reports GI50 and TGI results from PubChem BioAssay (NCI).

Test systems include IGROV1 ovarian; MALME-3M melanoma; MOLT-4 leukemia; RPMI-8226 leukemia; RXF 393 renal; SN12C renal; SR leukemia; SW-620 colon; U251 CNS; UO-31 renal.
What all share (assay): NCI anticancer screen, dose series, 48 h

Several values for one entry are separate records, joined by “and”; a condition that tells them apart may be missing. Equal values may be shown once.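 Five compound concentrations were applied to cells in 96-well plates for 48 hours; endpoints were derived by simple linear interpolation of the resulting dose-response curve. GI50: concentration for 50% inhibition of growth. TGI is the concentration that stops growth completely.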

In the case of `CCOC(=O)c1cn2ncnc(Oc3ccc(NC(=O)NCCN(CC)CC)c(Cl)c3)c2c1C`, the GI50 was 6.71 µM in the assay with IGROV1 ovarian; 1.7 µM with MALME-3M melanoma; 2.36 µM in the assay with MOLT-4 leukemia; 1.73 µM with RPMI-8226 leukemia; 1.63 µM in the assay on RXF 393 renal; 3.34 µM in the assay with SN12C renal. Besides, the GI50 is 1.96 µM in the assay with SR leukemia, 2.1 µM in the assay with SW-620 colon, 2.38 µM in the assay on U251 CNS and 1.55 µM in the assay on UO-31 renal. Besides, the TGI worked out at 26.2 µM with IGROV1 ovarian; 3.3 µM with MALME-3M melanoma; 5.67 µM with MOLT-4 leukemia; 3.92 µM with RPMI-8226 leukemia; 3.37 µM in the assay on RXF 393 renal; 13.3 µM with SN12C renal. Besides, the TGI was found to be 5.15 µM in the assay with SR leukemia, 4.6 µM in the assay with SW-620 colon, 6.24 µM in the assay with U251 CNS and 3.19 µM with UO-31 renal.
`C[C@@H]1CCC2[C@@H](C)[C@H](OC(=O)CCC(=O)NCCNC(=O)Cc3cc(=O)oc4cc(N(C)C)ccc34)O[C@@H]3O[C@]4(C)CC[C@@H]1C23OO4` (some centres undefined): the GI50 in the assay with IGROV1 ovarian was 2.55 µM; in the assay on MALME-3M melanoma it was 2.02 µM; in the assay with MOLT-4 leukemia, 1.75 µM; in the assay on RPMI-8226 leukemia, 0.378 µM; with RXF 393 renal it was 3.45 µM; in the assay on SN12C renal, 4.04 µM. The GI50 in the assay on SR leukemia is 0.561 µM; with SW-620 colon, 0.457 µM; in the assay with U251 CNS, 1.33 µM; in the assay on UO-31 renal, 0.897 µM. The TGI with IGROV1 ovarian was 17.7 µM; with MALME-3M melanoma, > 100 µM; in the assay with MOLT-4 leukemia it was 37.9 µM; with RPMI-8226 leukemia it was 32.9 µM; in the assay with RXF 393 renal it was 43.2 µM; in the assay with SN12C renal, > 100 µM. The TGI was found to be 6.83 µM in the assay with SR leukemia, 20.8 µM with SW-620 colon, 19.1 µM in the assay on U251 CNS and 4.15 µM with UO-31 renal.
On to `NC(=O)N/N=C1/CCCC/C1=C\c1ccccc1`, for which the TGI with IGROV1 ovarian, in the assay with MALME-3M melanoma, with MOLT-4 leukemia, in the assay with RPMI-8226 leukemia, with RXF 393 renal and in the assay on SN12C renal was > 100 µM each time. For the same compound, the TGI in the assay on SR leukemia, in the assay on SW-620 colon, in the assay on U251 CNS and in the assay with UO-31 renal was > 100 µM in each case.
Turning to `CCC[CH2][Sn]1([CH2]CCC)[O]CC([CH2][Sn]([c]2ccccc2)([c]2ccccc2)[c]2ccccc2)[O]1` (centres undefined), the GI50 in the assay on IGROV1 ovarian is 15.2 µM; in the assay with MALME-3M melanoma it was 13.6 µM; in the assay on MOLT-4 leukemia, 3.22 µM; in the assay with RPMI-8226 leukemia, 2.85 µM; in the assay on RXF 393 renal, 3.21 µM; in the assay with SN12C renal, 14 µM. The GI50 in the assay on SR leukemia is 3.78 µM; in the assay on SW-620 colon, 3.9 µM; in the assay on U251 CNS it was 6.5 µM; in the assay with UO-31 renal it was 15.3 µM. For the same compound, the TGI with IGROV1 ovarian amounted to 29.2 µM; with MALME-3M melanoma it was 26.4 µM; in the assay on MOLT-4 leukemia, 28.5 µM; in the assay with RPMI-8226 leukemia, 18.7 µM; with RXF 393 renal it was 15.4 µM; with SN12C renal it was 27.7 µM. For the same compound, the TGI in the assay with SR leukemia was > 100 µM; with SW-620 colon it was 15.7 µM; in the assay with U251 CNS, 19.9 µM; with UO-31 renal, 28.7 µM.
Turning to `CN1CCN(c2ccc([N+](=O)[O-])c3no[n+]([O-])c23)CC1`, the GI50 is 0.0516 µM with IGROV1 ovarian; 0.378 µM in the assay on MALME-3M melanoma; 0.0645 µM with MOLT-4 leukemia; 0.436 µM in the assay with RPMI-8226 leukemia; 0.443 µM in the assay with RXF 393 renal; 0.357 µM in the assay on SN12C renal. Moreover, the GI50 in the assay with SR leukemia is 0.0201 µM; with SW-620 colon, 0.117 µM; with U251 CNS it was 0.189 µM; in the assay with UO-31 renal it was 0.189 µM. Besides, the TGI in the assay with IGROV1 ovarian is 0.919 µM and 0.362 µM; in the assay on MALME-3M melanoma, 0.712 µM and 1.08 µM; in the assay with RPMI-8226 leukemia it was 0.795 µM and 2.43 µM; in the assay with RXF 393 renal, 1.57 µM and 1.68 µM; in the assay with SN12C renal, 1.29 µM and 1.37 µM; in the assay on SR leukemia it was 0.0274 µM and 0.0936 µM. The TGI in the assay on SW-620 colon was 0.828 µM and 0.261 µM; in the assay on U251 CNS it was 1.41 µM and 0.618 µM; in the assay on UO-31 renal, 1.88 µM and 1.14 µM.
In the case of `CCCCCCCCCCCCOC(=S)NC`, the TGI was determined as 38.9 µM with IGROV1 ovarian; 39.6 µM in the assay with MALME-3M melanoma; 32.1 µM in the assay on MOLT-4 leukemia; 36.1 µM in the assay with RPMI-8226 leukemia; 32.5 µM with RXF 393 renal; 31.7 µM in the assay with SN12C renal. Moreover, the TGI in the assay on SR leukemia was found to be 34.6 µM; with SW-620 colon, 32.6 µM; in the assay with U251 CNS it was 32.8 µM; in the assay with UO-31 renal it was 43.7 µM.
In the case of `COc1cc(CCC(=O)NS(=O)(=O)c2ccccc2)cc(OC)c1OC`, the TGI in the assay with IGROV1 ovarian, in the assay with MALME-3M melanoma, in the assay with MOLT-4 leukemia, in the assay on RPMI-8226 leukemia, in the assay on RXF 393 renal and with SN12C renal was > 100 µM in each case. The TGI with SR leukemia, with SW-620 colon, with U251 CNS and in the assay on UO-31 renal was > 100 µM in each case.
`COC(=O)C(C(=O)C(=O)Nc1ccc(C)cc1C)c1nc2ccc([N+](=O)[O-])cc2[nH]c1=O` (centres undefined): the TGI in the assay with IGROV1 ovarian, in the assay on MALME-3M melanoma, in the assay on MOLT-4 leukemia, with RPMI-8226 leukemia, in the assay on RXF 393 renal and with SN12C renal was > 100 µM throughout. For the same compound, the TGI in the assay with SR leukemia, in the assay on SW-620 colon, in the assay with U251 CNS and in the assay on UO-31 renal was > 100 µM each time.
